From patent US20070010538A1, “Inhibition of pathogenic processes related to tissue trauma” (priority 1998, published 2007)

Key:
[1] = system: collagen type I gene expression; experiment: Northern blot for collagen type I gene expression in human skin fibroblasts; type: cell-based; details: primary culture
Description: (§1) Next, human skin fibroblasts were taken from a subject and were maintained in primary culture. Control cells were treated with vehicle while Halofuginone-treated cells were treated with Halofuginone as previously described. The cells were then harvested and subjected to RNA extraction and Northern blot analysis for collagen type I gene expression and for cKrox gene expression.

[2] = system: H19 gene; experiment: Northern blot for H19 gene expression in bladder carcinoma cell lines; type: cell-based, human; details: 130 ng/ml
Description: RT112 and 5376 human bladder carcinoma cell lines were cultured in the absence and presence of Halofuginone (130 ng/ml, added 24 h or 72 h after seeding), and the expression of the H19 gene was evaluated by Northern blot analysis ([…]. et al., Arterioscler. Thromb. Vasc. Biol., Vol. 17, p. 194-202, 1997). […] Such inhibition also supports the inclusion of the inhibition of H19 gene expression as part of the extracellular matrix economy mechanism, as described previously.

[3] = system: cytokine TNF-α release; experiment: Cytokine TNF-α release assay (MDS Panlabs); type: cell-based
Description: (§2) The ability of Halofuginone to inhibit various biochemical processes according to a set of assays for determining the percent inhibition of specific binding or activity of particular cellular proteins is described in greater detail in Table 1 below. The assays were performed by MDS Panlabs Inc. (Bothell, […]., USA). These assays included: the inhibition of release of the cytokines IL-1β and TNF-α; and the inhibition of the transcription of NF-κB.

[4] = system: NF-κB transcription; experiment: NF-κB transcription assay (MDS Panlabs); type: cell-based
Description: as §2

[5] = system: TGF β; experiment: Ang II rat model: in situ hybridization of heart tissue with TGF-β1 probe; type: in vivo; details: rats given Ang II plus Halofuginone vs Ang II
Description: (§3) The experimental method was as follows. Male Sprague-Dawley rats were divided into four groups. Two groups were chronically infused with Ang II at the rate of 0.150 ng/min by implanted mini-pump. This dosage regimen will induce severe cardiac fibrosis. The other two groups of rats, control rats, were injected with saline. One group of Ang II-treated rats and one control group were daily injected intraperitoneally with 16 micrograms of Halofuginone. At the end of the experimental period, the rats were sacrificed and the heart was removed and weighed. Heart samples were then hybridized with a probe for rat collagen α1(I) expression, or with a probe for TGF β1 expression. For hybridization with one of the genetic probes, the sections were deparafinized in xylene, rehydrated through a graded series of ethanol solutions, rinsed in distilled water for 5 minutes and then incubated in 2×SSC at 70° C. for 30 minutes. The sections were then rinsed in distilled water and treated with pronase, 0.125 mg/ml in 50 mM Tris-HCl, 5 mM EDTA, pH 7.5, for 10 minutes. After digestion, the slides were rinsed with distilled water, post-fixed in 10% formalin in PBS and blocked in 0.2% glycine. After blocking, the slides were rinsed in distilled water, rapidly dehydrated through graded ethanol solutions and air-dried for several hours. […]

[6] = system: cKrox gene expression; experiment: Northern blot for cKrox gene expression in human skin fibroblasts; type: cell-based; details: primary culture
Description: as §1

[7] = system: MMP2 (72 kDa type IV collagenase); experiment: Gelatin zymography of type IV collagenase activity in T50 bladder carcinoma cell cultures; type: cell-based
Description: Sub-confluent cell cultures were incubated for 6-24 h in serum-free DMEM. The collagenolytic activity was determined on a gelatin impregnated (1 mg/ml. Difco, Detroit, Mich.) SDS-PAGE 8% gel. Briefly, culture media samples were separated on the substrate impregnated gels under non reducing conditions, followed by 30 min incubation in 2.5% Triton X-100 (BDH, England). The gels were then incubated for 16 h at 37° C. in 50 mM Tris, 0.2 M NaCl, 5 mM CaCl2, 0.02% Brij 35 (weight/volume) at pH 7.5. At the end of incubation period, the gels were stained with 0.5% Coomassie G250 (Bio-Rad Richmond Calif.) in methanol/acetic acid/H2O (30:10:60). The intensity of the various bands was determined on a computerized densitometer (Molecular Dynamics type 300A).

[8] = system: Ang II-induced cardiac fibrosis; experiment: Ang II-induced cardiac fibrosis in rats: histology and collagen volume quantitation (Sirius red); type: in vivo, rat
Description: The experimental method was as follows. Male Sprague-Dawley rats were divided into four groups. Two groups were chronically infused with Ang II at the rate of 0.150 ng/min by implanted mini-pump. This dosage regimen will induce severe cardiac fibrosis. The other two groups of rats, control rats, were injected with saline. One group of Ang II-treated rats and one control group were daily injected intraperitoneally with 16 micrograms of Halofuginone. At the end of the experimental period, the rats were sacrificed and the heart was removed and weighed. Heart samples were taken for histological examination. Briefly, the tissue samples were collected into phosphate-buffered saline (PBS) and fixed overnight in 4% paraformaldehyde in PBS at 4° C. Serial 5 μm sections were prepared after the samples had been dehydrated in graded ethanol solutions, cleared in chloroform and embedded in Paraplast. Differential staining of collagenous and non-collagenous proteins was performed with 0.1% Sirius red and 0.1% fast green as a counter-stain in picric acid. This procedure stains collagen red [Gascon-Barre, M., et al., J. Histochem. Cytochem., 37:377-381, 1989]. […] Indeed, the ventricular collagen volume fraction (CVF) was increased by threefold (p<0.05) in rats treated with Ang II, compared to rats treated with either Halofuginone alone or Halofuginone plus Ang II. In addition, the ventricular CVF for control rats was identical to that for rats treated with Halofuginone alone.

[9] = system: cell invasion through matrigel ECM; experiment: Boyden chamber invasion assay; type: cell-based; details: data not shown
Source text: Such inhibition supports the inclusion of type IV collagenase inhibition as part of the extracellular matrix economy mechanism, in which Halofuginone inhibits undesirable pathological processes such as tumor growth, progression and metastasis, as described previously.

[10] = system: collagen α1(I) mRNA; experiment: Collagen α1(I) mRNA level in primary human fibroblasts; type: cell-based; details: tested at the level of RNA
Description: The same protocol was used as previously. Primary human fibroblasts were treated for 1 hr with 10^−8 M Halofuginone. […] Arrays include 265 genes known to be involved in various types of cell interactions.

[11] = system: collagen type I gene expression; experiment: Northern blot for collagen type I gene expression in myometrial and leiomyosarcoma cells; type: cell-based, human; details: increasing concentrations, about 48 hours
Description: Myometrial and leiomyosarcoma cells were taken from the same patient and were plated into 10 cm plates in DMEM supplemented with 10% FCS. When the cells reached 80% confluence, the medium was replaced by serum free DMEM plus 0.1% BSA for 48 hours, washed and exposed to increasing concentrations of Halofuginone in the same medium for about 48 hours at about 37° C. The cells were then harvested and subjected to RNA extraction and Northern blot analysis for collagen type I gene expression.

[12] = system: β5 integrin chain; experiment: RT-PCR for β5 integrin chain in MDA 435 breast carcinoma cells; type: cell-based, human; details: MDA 435 cells, 24 h, 10-400 ng/ml
Description: (§4) Therefore, the effect of Halofuginone was investigated on the expression of αv, β3 and β5 integrin subunits in the highly aggressive MDA 435 human breast carcinoma cell line. Cells were cultured in the absence (FIG. 4, lanes A & B) or presence of increasing concentrations (10-400 ng/ml) of Halofuginone for 24 h (lane C: 400 ng/ml), 48 h (lanes D-G: 10, 50, 200, and 400 ng/ml, respectively) or 72 h (FIG. 4, lane H: 400 ng/ml). Total RNA was extracted, subjected to 1.1% formaldehyde-agarose gel electrophoresis, transferred to a nylon membrane and hybridized with ^32P-labeled PCR probe corresponding to αv. […] This effect was […] at higher concentrations (200-400 ng/ml) of Halofuginone (FIG. 4, lanes F-H). Next, RT-PCR was used to analyze the effect of Halofuginone on expression of the β3 and β5 integrin chains by the MDA 435 breast carcinoma cells. […] In contrast, there was no effect on expression of the β5 mRNA. As the αvβ3 integrin complex plays an important role in tumor angiogenesis, the anti-angiogenic effect of Halofuginone may be mediated in part by its inhibition of the β3 gene expression.

[13] = system: β3 integrin chain; experiment: RT-PCR for β3 integrin chain in MDA 435 breast carcinoma cells; type: cell-based, human; details: MDA 435 cells, 24 h, 200 ng/ml
Description: as §4

[14] = system: αv integrin subunit; experiment: Northern blot for integrin αv mRNA in MDA 435 breast carcinoma cells; type: cell-based, human; details: MDA 435 cells
Description: as §4

[15] = system: cytokine IL-1β release; experiment: Cytokine IL-1β release assay (MDS Panlabs); type: cell-based
Description: as §2

[16] = system: collagen α1(I) gene; experiment: Ang II rat model: in situ hybridization of heart tissue with rat collagen α1(I) probe; type: in vivo; details: rats given both Halofuginone and Ang II vs Ang II alone
Description: as §3

`O=C(CC1NCCC[C@H]1O)Cn1cnc2cc(Br)c(Cl)cc2c1=O` (stereo partly drawn) [Halofuginone] was tested, and the “collagen type I gene expression” value [1] was “inhibiting collagen type I gene expression”, the “expression of the H19 gene” value ([2]; 5376 bladder carcinoma cell line) was “substantial reduction” and the “expression of the H19 gene” value ([2]; RT112 bladder carcinoma cell line) was “substantial reduction”. For the same compound, the IC50 [3] was 6.8 nM, the IC50 [4] was 25 nM and the “Ang II-induced increase in expression of mRNA for TGF β in rat heart” value [5] was “not affected”. For the same compound, the cKrox gene expression [6] was “promoted cKrox gene expression”, the “inhibition of the activity of MMP2 (72 kDa type IV collagenase)” value ([7]; 25 ng/ml) was “profound inhibition” and the “inhibition of the activity of MMP2 (72 kDa type IV collagenase)” value ([7]; 100 ng/ml) was “almost complete inhibition”. For the same compound, the “Ang II-induced morphological changes in rat heart (histology)” value ([8]; Ang II-infused rats, 16 micrograms daily intraperitoneally) was “substantially inhibited”, the “ventricular CVF” value ([8]; Halofuginone alone, without Ang II, two week period) was “did not alter” and the “ventricular collagen volume (CVF)” value ([8]; rats given both Ang II and Halofuginone vs Ang II alone, 16 micrograms daily i.p.) was “markedly reduced”. The “cell invasion through matrigel ECM” value [9] was “inhibit cell invasion”, the “collagen α1(I) mRNA” value [10] was “reduced” and the “collagen type I gene expression (products at 5.4 and 4.8 kb)” value [11] was “inhibited collagen type I gene expression”. For the same compound, the “β5 mRNA expression” value [12] was “no effect”, the “β3 mRNA expression” value [13] was “almost complete inhibition” and the “αv mRNA expression (up regulation effect)” value ([14]; 200-400 ng/ml) was “minimal”. For the same compound, the “αv mRNA expression” value ([14]; 48 h, 10 and 50 ng/ml) was “up regulation”, the IC50 [15] was 31.7 nM and the “expression of collagen α1(I) gene in rat heart” value [16] was “marked reduction”.
